Here are results for one compound from patent publication US20190047983A1, “MODIFIED PROCESS FOR THE PREPARATION OF CERITINIB AND AMORPHOUS FORM OF CERITINIB” (NATCO PHARMA LIMITED, priority 2016, published 2019).

The nature of the data set: Stability of the amorphous form, confirmed by PXRD, DSC and TGA. It is filed as physicochemical. The conditions noted are these: solid amorphous form. From the text:
According to the present invention, the obtained amorphous form of Ceritinib is stable up to 180 days. The stability of the amorphous form is confirmed by PXRD, DSC and TGA.
FIG. 2: Powder X-ray diffractogram of an amorphous form of ceritinib of 180 days

As for `Cc1cc(Nc2ncc(Cl)c(Nc3ccccc3S(=O)(=O)C(C)C)n2)c(OC(C)C)cc1C1CCNCC1` [amorphous form of Ceritinib], the “stability towards polymorphic conversion” value was “stable towards polymorphic conversion”. For the same compound, the “stability of the amorphous form (time for which it is stable)” value (confirmed by PXRD, DSC and TGA, storage conditions not given) is on record as “up to 180 days”.
